Data taken from ChEMBL document CHEMBL1201862, “PubChem BioAssay data set” (2004).
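Exposure lasted 48 hours, with cells grown in 96-well plates and compounds tested at five concentrations. The concentration for 50% growth inhibition is given as GI50.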 The source made the active and inactive calls. Rule as the data show it: active = GI50 up to about 1.1 µM and inactive = higher.

Experiments:
Assay in all cases: NCI tumour cell line growth inhibition, 48 h
[1] = test system: DLD-1
[2] = test system: HOP-18
[3] = test system: KM-20L2
[4] = test system: LXFL 529
[5] = test system: MDA-N
[6] = test system: RXF 631
[7] = test system: SNB-78
[8] = test system: XF498
[9] = test system: M19-MEL

Row | SMILES | GI50 [1] | GI50 [2] | GI50 [3] | GI50 [4] | GI50 [5] | GI50 [6] | GI50 [7] | GI50 [8] | GI50 [9]
1 | O=C1c2cccc(NCCNCCO)c2C(=O)c2cccc(NCCNCCO)c21 | 3.18 µM (inactive) | 2.15 µM (inactive) | 1.18 µM (inactive) | 0.643 µM (active) | 0.215 µM (active) | 3.13 µM (inactive) | 1.52 µM (inactive) | 0.556 µM (active) | 
2 | CC12CCCCC1(C)C2Sc1ccccc1 (stereo not drawn) | 61.2 µM (inactive) | 63.1 µM (inactive) | > 100 µM (inactive) | 63.8 µM (inactive) |  | 51.5 µM (inactive) | > 44.3 µM (inactive) | 27.3 µM (inactive) | 35.9 µM (inactive)
3 | O=c1cc[nH]c2ccc3nn[nH]c3c12 | > 100 µM (inactive) | > 100 µM (inactive) | > 100 µM (inactive) | > 100 µM (inactive) |  | > 100 µM (inactive) | > 100 µM (inactive) | > 100 µM (inactive) | > 100 µM (inactive)
4 | CCN(C1=CC(=O)NC2CCCCN12)c1ccccc1 (stereo not drawn) | > 100 µM (inactive) | > 100 µM (inactive) | > 100 µM (inactive) | > 100 µM (inactive) |  | > 100 µM (inactive) | > 100 µM (inactive) | > 100 µM (inactive) | > 100 µM (inactive)
5 | CCCCNC(=O)C1C(=O)N(CCCC)C(=O)/C1=N\N (stereo not drawn) |  | > 100 µM (inactive) | > 100 µM (inactive) | > 100 µM (inactive) |  | > 100 µM (inactive) | > 100 µM (inactive) | > 100 µM (inactive) | > 100 µM (inactive)
6 | O=C1/C(=C\c2ccccc2)CN(C(=O)CCN2CCCCC2)C/C1=C/c1ccccc1 | 1.19 µM (inactive) | 3.03 µM (inactive) | 0.811 µM (active) | 1.32 µM (inactive) | 1.19 µM (inactive) | 1.47 µM (inactive) | 2.54 µM (inactive) | 1.73 µM (inactive) | 0.658 µM (active)
